For assay [1], the target named is T1, human PPARdelta (Homo sapiens, UniProt Q03181).
T1 construct: human PPARdelta receptor (amino acids S139-Y441); expressed in transfected cells
T1 sequence (Q03181 139-441): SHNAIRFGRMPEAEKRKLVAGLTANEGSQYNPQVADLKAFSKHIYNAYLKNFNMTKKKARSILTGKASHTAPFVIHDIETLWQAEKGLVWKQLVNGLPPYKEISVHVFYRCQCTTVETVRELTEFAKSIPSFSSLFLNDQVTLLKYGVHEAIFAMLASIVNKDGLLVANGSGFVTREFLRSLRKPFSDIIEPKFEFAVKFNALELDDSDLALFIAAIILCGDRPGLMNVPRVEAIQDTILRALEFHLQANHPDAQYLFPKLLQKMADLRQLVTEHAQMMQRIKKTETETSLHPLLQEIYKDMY
The assay is described as follows: Cellular PPARdelta assay (luciferase reporter, stably transfected HEK cell line). The class given is cell-based. The conditions noted are these: PPARdelta reporter cell line (HEK, GR-GAL4-humanPPARdelta-LBD). The method, then: Determination of EC50 Values of PPAR Agonists in the Cellular PPARdelta Assay
The potency of substances which bind to human PPARdelta and activate it in an agonistic manner is analyzed using a stably transfected HEK cell line (HEK=human embryo kidney) which is referred to here as PPARdelta reporter cell line. In analogy to the assay described for PPARalpha, the PPARdelta reporter cell line also contains two genetic elements, a luciferase reporter element (pdeltaM-GAL4-Luc-Zeo) and a PPARdelta fusion protein (GR-GAL4-humanPPARdelta-LBD) which mediates expression of the luciferase reporter element depending on a PPARdelta ligand. The stably and constitutively expressed fusion protein GR-GAL4-humanPPARdelta-LBD binds in the cell nucleus of the PPARdelta reporter cell line via the GAL4 protein portion to the GAL4 DNA binding motifs 5′-upstream of the luciferase reporter element which is stably integrated in the genome of the cell line. There is only little expression of the luciferase reporter gene in the absence of a PPARdelta ligand if fatty acid-depleted fetal calf serum (cs-FCS) is used in the assay. PPARdelta ligands bind and activate the PPARdelta fusion protein and thereby stimulate expression of the luciferase reporter gene. The luciferase which is formed can be detected by means of chemiluminescence via an appropriate substrate.
The production of the stable PPARdelta reporter cell line is based on a stable HEK-cell clone which was stably transfected with a luciferase reporter element. This step was already described above in the section “construction of the PPARalpha reporter cell line”. In a second step, the PPARdelta fusion protein (GR-GAL4-humanPPARdelta-LBD was stably introduced into this cell clone. For this purpose, the cDNA coding for the N-terminal 76 amino acids of the glucocorticoid receptor (Accession #P04150) was linked to the cDNA section coding for amino acids 1-147 of the yeast transcription factor GAL4 (Accession #P04386). The cDNA of the ligand-binding domain of the human PPARdelta receptor (amino acids S139-Y441; Accession #L07592) was cloned in at the 3′-end of this GR-GAL4 construct. The fusion construct prepared in this way (GR-GAL4-humanPPARdelta-LBD) was recloned into the plasmid pcDNA3 (Invitrogen) in order to enable constitutive expression by the cytomegalovirus promoter. This plasmid was linearized with a restriction endonuclease and stably transfected into the previously described cell clone containing the luciferase reporter element. […]
The activity of PPARdelta agonists is determined in a 3-day assay in exact analogy to the procedure already described for the PPARalpha reporter cell line except that the PPARdelta reporter cell line and a specific PPARdelta agonist was used as a standard to control test efficacy.
(In general: In a reporter assay the amount or activity of a reporter protein is the signal.)

Assay [2] has as its target T2, human PPARalpha (Homo sapiens, UniProt Q07869).
T2 construct: human PPARalpha receptor (amino acids S167-Y468); expressed in transfected cells
T2 sequence (Q07869 167-468): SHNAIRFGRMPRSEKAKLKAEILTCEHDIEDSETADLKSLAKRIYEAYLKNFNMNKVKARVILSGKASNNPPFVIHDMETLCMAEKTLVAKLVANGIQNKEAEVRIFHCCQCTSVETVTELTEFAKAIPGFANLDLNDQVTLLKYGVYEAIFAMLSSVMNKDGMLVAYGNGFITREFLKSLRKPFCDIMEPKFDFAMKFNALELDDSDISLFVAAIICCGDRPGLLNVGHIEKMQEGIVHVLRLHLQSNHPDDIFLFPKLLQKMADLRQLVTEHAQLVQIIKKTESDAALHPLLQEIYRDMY
The assay is described as follows: Cellular PPARalpha assay (luciferase reporter, stably transfected HEK cell line). The conditions noted are these: PPARalpha reporter cell line (HEK, GR-GAL4-humanPPARalpha-LBD). The class given is cell-based. The method, then:
Determination of EC50 Values of PPAR Agonists in the Cellular PPARalpha Assay
The potency of substances which bind to human PPARalpha and activate it in an agonistic manner is analyzed using a stably transfected HEK cell line (HEK=human embryo kidney) which is referred to here as PPARalpha reporter cell line. It contains two genetic elements, a luciferase reporter element (pdeltaM-GAL4-Luc-Zeo) and a PPARalpha fusion protein (GR-GAL4-humanPPARalpha-LBD) which mediates expression of the luciferase reporter element depending on a PPARalpha ligand. The stably and constitutively expressed fusion protein GR-GAL4-humanPPARalpha-LBD binds in the cell nucleus of the PPARalpha reporter cell line via the GAL4 protein portion to the GAL4 DNA binding motifs 5′-upstream of the luciferase reporter element which is stably integrated in the genome of the cell line. There is only weak expression of the luciferase reporter gene in the absence of a PPARalpha ligand if fatty acid-depleted fetal calf serum (cs-FCS) is used in the assay. PPARalpha ligands bind and activate the PPARalpha fusion protein and thereby stimulate the expression of the luciferase reporter gene. The luciferase which is formed can be detected by means of chemiluminescence via an appropriate substrate. […]
The activity of PPARalpha agonists is determined in a 3-day assay which is described below: […]

The term EC50 denotes the concentration that produces a half-maximal response. Read a high EC50 as lower potency in that assay. `COc1ccc(-c2ccc3c(c2)CCN3S(=O)(=O)c2ccc(-c3noc(=O)[nH]3)cc2)nc1` [Example 8, 3-{4-[5-(5-Methoxy-pyridin-2-yl)-2,3-dihydro-indole-1-sulfonyl]-phenyl}-4H-[1,2,4]oxadiazol-5-one] showed an EC50 in assay [1] of 1300 nM.

For `COc1nc(C)ccc1-c1ccc2c(c1)CCN2S(=O)(=O)c1ccc(-c2noc(=O)[nH]2)cc1` [Example 5, 3-{4-[5-(2-Methoxy-6-methyl-pyridin-3-yl)-2,3-dihydro-indole-1-sulfonyl]-phenyl}-4H-[1,2,4]oxadiazol-5-one], the EC50 in assay [1] came to 3550 nM.

With `CC1(C)CN(S(=O)(=O)c2ccc(-c3noc(=O)[nH]3)c(Cl)c2)c2ccc(-c3ccc(C(F)(F)F)cc3)nc21` [Example 16, 3-{2-Chloro-4-[3,3-dimethyl-5-(4-trifluoromethyl-phenyl)-2,3-dihydro-pyrrolo[3,2-b]pyridine-1-sulfonyl]-phenyl}-4H-[1,2,4]oxadiazol-5-one], the concentration giving a half-maximal response (EC50) worked out at 800 nM in assay [2] and 2.5 nM in assay [1].

Take `O=c1[nH]c(-c2ccc(S(=O)(=O)N3CCc4cc(-c5ccc(C(F)(F)F)cc5)cnc43)cc2Cl)no1` [Example 14, 3-{2-Chloro-4-[5-(4-trifluoromethyl-phenyl)-2,3-dihydro-pyrrolo[2,3-b]pyridine-1-sulfonyl]-phenyl}-4H-[1,2,4]oxadiazol-5-one]: the EC50 is 1890 nM in assay [2] and 34 nM in assay [1].
